This note sets out measurements from patent US12673104B2, “Cleavable polymer drug conjugates” (RS ARASTIRMA EGITIM DANISMANLIK ILAC SANAYI TICARET ANONIM …, priority 2016, dated 2026).

This series is described as follows: Pharmacokinetic study (plasma total DTX). The format is in vivo. Conditions: total DTX in plasma. The procedure:
PEGMEMA-DTX conjugates having 50 kDa and 85 kDa molecular weight were subjected to pharmacokinetic testing and its pharmacokinetic profile was compared with that of free DTX.
Pharmacokinetic parameters for total DTX were calculated using the plasma total DTX concentration values of polymer drug conjugates and free DTX. Half-life, volume of distribution (VDβ), clearance (CL), and total area under the curve (AUC total) were calculated.
In order to provide similarity the HPMA-GFLG-DTX polymer was prepared without RGDfK targeting group.

What is called clearance is the volume of plasma or blood freed of the substance per unit of time. As usually defined, the half-life is the time needed for the level to fall by half in the phase considered. Take `CC(=O)O[C@@]12CO[C@@H]1C[C@H](O)[C@@]1(C)C(=O)[C@H](O)C3=C(C)[C@@H](OC(=O)[C@H](O)[C@@H](NC(=O)OC(C)(C)C)c4ccccc4)C[C@@](O)([C@@H](OC(=O)c4ccccc4)[C@H]21)C3(C)C` [Free DTX, Docetaxel]: the AUC total was 10000 ± 3000 ng·h/mL. Further, the clearance (read-out: CL (clearance) (converted)) is 2.34 mL/min. Besides, the half-life (read-out: Half Life (β) (converted)) was 3.12 ± 0.88 h. Moreover, for the setting “read-out: VDβ (volume of distribution)”, the Vd was found to be 0.664 ± 0.258 L.
